The text below walks through data of patent US20240148645A1, “NON-NANOPARTICULATE APPLICATION FORMS OF MACROLIDES” (Nucleus Medical GmbH, priority 2021, published 2024).

Values after ≈ are worked out from the molar mass of the structure shown.

Usually solubility stands for how much of the substance goes into solution per volume.

Data set [1] is described as follows: Saturation solubility of tacrolimus in different solvents. It is filed as physicochemical. The conditions noted are these: for solubility: thermodynamic from solid, room temperature. Here is the method: Tacrolimus was dissolved in an organic solvent. Particularly, the saturation solubility of tacrolimus in different organic solvents was tested. Crystalline active ingredient was added to a defined amount of solvent at room temperature while stirring until an insoluble sediment was formed. After filtration, the concentration of active ingredient was quantified by HPLC in the supernatant.

The conditions of data set [2]: low solubility and high permeability; cited from earlier work.

For `C=CC[C@@H]1/C=C(\C)C[C@H](C)C[C@H](OC)[C@H]2O[C@@](O)(C(=O)C(=O)N3CCCC[C@H]3C(=O)O[C@H](/C(C)=C/[C@@H]3CC[C@@H](O)[C@H](OC)C3)[C@H](C)[C@@H](O)CC1=O)[C@H](C)C[C@@H]2OC` [Tacrolimus], the “Solubility in tested organic solvents” value in data set [1] is listed as “soluble in all tested organic solvents”. The solubility in data set [1] (organic solvent or mixture, Acetic Acid) turned out to be 545 mg/mL (≈ 678 mM); in data set [1] (organic solvent or mixture, DMSO) it was 582 mg/mL (≈ 724 mM); in data set [1] (organic solvent or mixture, Ethanol) it was 389 mg/mL (≈ 484 mM); in data set [1] (organic solvent or mixture, iso-Propanol), 243 mg/mL (≈ 302 mM); in data set [1] (Water), 0.00076 mg/mL (≈ 0.000945 mM). Further, the BCS class entry in data set [2] was “BCS class II”.
